# Values quoted from earlier work as cited in patent publication US20050070607A1, “N-acetylcysteine compositions and methods for the treatment and prevention of cysteine/glutathione deficiency in diseases and conditions” (priority 2003, published 2005).
# Key:
# [1] = tested on: acute lung injury; conditions: RBC GSH, days of acute lung injury, cardiac index; NAC 70 mg/kg q 8 hr IV; OTZ 63 mg/kg q 8 hr IV; n 48; 10 days; Bernard 1997[222]
# [2] = tested on: human atherosclerosis; conditions: brachial artery flow-mediated dilation; 4.5 g OTC po; n 48; 4 hours; Vita 1998[15]
# [3] = tested on: HIV infected individuals; conditions: whole blood GSH; OTC 1500-3000 mg/day po; n 37; 4 weeks; Barditch-Crovo 1998[283]
# [4] = tested on: Cystic Fibrosis (CF); conditions: air trapping and FEV1; NAC or Ambroxol 200 mg 3 times daily; n 36; 12 weeks; Ratjen 1985[274]
# [5] = tested on: cochlea
# [6] = tested on: chronic renal failure; conditions: regular users consuming >=1.4 g/day on average, absence of aspirin use; Fored[184]
structure (smiles),measurement,setting,value
O=C1N[C@H](C(=O)O)CS1 [OTZ],Beneficial effects,[1],Beneficial
"O=C1N[C@H](C(=O)O)CS1 [OTC, L-2-oxothiazolidine-4-carboxylic acid]",Beneficial effects,[2],Beneficial
same,Beneficial effects,[3],Beneficial
Nc1c(Br)cc(Br)cc1CN[C@H]1CC[C@H](O)CC1 [Ambroxol],Beneficial effects,[4],Beneficial
CSCC[C@H](N)C(=O)O [methionine],Hearing loss and cochlear damage from aminoglycoside antibiotics and cisplatin,[5]; animal models [245-247],greatly reduced
same,permanent cochlear damage due to acute acoustic overexposure,"[5]; animal models, systemic administration [246,248]",almost completely prevented
CC(=O)Nc1ccc(O)cc1 [acetaminophen],relative risk of chronic renal failure,[6],5.3
